The target of one test is T1, hS1P4 (Homo sapiens, UniProt O95977).
T1 construct: expressed in transfected cells; host or cells: CHO
T1 sequence (O95977 1-384): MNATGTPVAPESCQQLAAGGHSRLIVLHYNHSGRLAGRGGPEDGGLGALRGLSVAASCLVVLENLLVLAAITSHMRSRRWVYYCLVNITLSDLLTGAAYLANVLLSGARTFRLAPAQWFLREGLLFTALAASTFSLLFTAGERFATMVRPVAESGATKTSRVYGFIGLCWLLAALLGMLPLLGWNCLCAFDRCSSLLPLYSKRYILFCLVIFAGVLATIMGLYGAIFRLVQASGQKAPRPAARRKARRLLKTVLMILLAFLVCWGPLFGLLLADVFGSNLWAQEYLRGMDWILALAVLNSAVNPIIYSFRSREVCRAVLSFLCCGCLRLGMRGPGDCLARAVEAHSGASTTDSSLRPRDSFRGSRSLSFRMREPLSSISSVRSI
Description: Tango β-arrestin recruitment luciferase assay, Tango-hS1P4-CHO. Type of test: cell-based. The settings on record: β-arrestin recruitment; 20 h drug treatment; top 45 µM, 9 serial 5-fold dilutions; positive control 25 µM BAF-312; read-out: Tango-hS1P4-CHO EC50. The text has this:
(§1) The Tango assay detects ligand-dependent GPCR activity through the interaction between β-arrestin and GPCRs. […] The NTEV fragment and the tetracycline transactivator (tTA), an artificial transcription factor, are fused at the C-terminus of the GPCR, while the CTEV fragment is fused to human β-arrestin 2. To enhance the stability of the interaction between GPCR and β-arrestin, a short sequence from the C-terminus of the human arginine vasopressin receptor 2 (V2 tail) is inserted between the GPCR and NTEV. The V2 tail contains multiple GRK phosphorylation sites, which strengthen β-arrestin binding upon phosphorylation. The CTEV fragment carries the stabile point mutation S219P and is truncated at residue 221 to remove the autoinhibitory C-terminal tail. Meanwhile, β-arrestin 2 is truncated to lack the entire C-terminal tail (residues 383-410 deleted). This truncation confers robust stimulus-dependent receptor desensitization, thereby improving detection sensitivity compared with wild-type β-arrestin 2. The UAS reporter construct consists of upstream activating sequence (UAS) elements, a minimal CMV promoter, and a tTA-dependent luciferase reporter gene. Therefore, constructing Tango cells requires the co-transfection of the above three plasmids into host cells. Upon GPCR activation and β-arrestin recruitment, the TEV enzyme at the β-arrestin terminus cleaves tTA from the GPCR C-terminus. The released tTA initiates tTA-dependent luciferase transcription, and compound activity is ultimately determined by measuring luminescence intensity.
(§2) • 1) Tango cell line from was digested from the culture dish respectively. After cell counting, the cells were plated at a density of 10,000 cells per well with […] into a white opaque 96-well plate (add 60 µL D'Hanks to the surrounding wells), and incubated overnight (20 h) in a 5% CO2 incubator at 37°C. The cell density will reach approximately 90% the next day. • 2) After 20 h, 30 µL of serially diluted compound solution was added to each well. The control group was supplemented with 30 µL F12K complete medium. Each group had three replicate wells. • 3) Samples were collected after 20 h of drug treatment.
(§3) (All compounds were tested at a final concentration of 45 µM, with 9 serial dilutions at 5-fold intervals. 1 µM BAF-312 was used as the positive control for S1PR1, and 25 µM BAF-312 was used as the positive control for S1PR4.

The next test deals with T2, hS1P1 (Homo sapiens, UniProt P21453).
T2 construct: expressed in transfected cells; host or cells: CHO
The test is described as follows: Tango β-arrestin recruitment luciferase assay, Tango-hS1P1-CHO. The class given is cell-based. The following applies: β-arrestin recruitment; 20 h drug treatment; top 45 µM, 9 serial 5-fold dilutions; positive control 1 µM BAF-312; read-out: Tango-hS1P1-CHO EC50.
Text: as §1, §2, §3
For orientation: Recruitment of arrestin is a read-out of receptor activation apart from second messengers.

Structures are written as SMILES.

T2 sequence (P21453 whole entry): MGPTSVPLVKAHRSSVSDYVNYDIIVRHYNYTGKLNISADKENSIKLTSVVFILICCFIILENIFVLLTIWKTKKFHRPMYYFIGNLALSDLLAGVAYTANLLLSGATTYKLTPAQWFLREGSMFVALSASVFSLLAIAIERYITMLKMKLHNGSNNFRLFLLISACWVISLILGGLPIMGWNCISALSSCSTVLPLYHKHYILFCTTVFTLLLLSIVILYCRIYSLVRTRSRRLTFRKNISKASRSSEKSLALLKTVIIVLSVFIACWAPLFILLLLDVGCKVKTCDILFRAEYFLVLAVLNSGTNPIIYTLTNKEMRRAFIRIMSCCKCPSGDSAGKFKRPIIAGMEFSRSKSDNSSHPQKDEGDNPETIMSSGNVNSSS

With `CCc1cc(/C(C)=N/OCc2ccc(-c3cnc(O)cn3)c(C)c2)ccc1CN1CC[C@H](C(=O)O)C1` [Compound 5, (S, E)-1-(2-ethyl-4-(1-(((3-methyl-4-(5-hydroxypyrazin-2-yl)-benzyl)oxy)imino)ethyl)benzyl)pyrrolidine-3-carboxylic acid], the half-maximal effective concentration (EC50) at hS1P4 came out at 4.22 ± 1.19 nM.
On to `C/C(=N\OCc1ccc(C2CCCCC2)c(C(F)(F)F)c1)c1ccc(CNCCCC(=O)O)cc1` [Compound 8, (E)-4-((4-((1-((4-cyclohexyl-3-(trifluoromethyl)benzyl)oxy)imino)ethyl)benzyl)amino)butanoic acid], for which the half-maximal effective concentration (EC50) at hS1P4 worked out at 2400 nM.
On the same count and under the same terms, then `C/C(=N\OCc1ccc(C2CCCCC2)c(C(F)(F)F)c1)c1ccc(CN2CC(C(=O)O)C2)c(Br)c1` [Compound 12, (E)-1-(2-bromo-4-(1-((4-cyclohexyl-3-(trifluoromethyl)benzyl)oxy)imino)ethyl)azetidine-3-carboxylic acid], with 2250 nM.
Turning to `CCc1cc(/C(C)=N/OCc2cccc(C(F)(F)F)c2)ccc1CN1CC(C(=O)O)C1` [Compound 13], at hS1P4, the 50% effective concentration (EC50) was 3240 nM.
Consider `CCc1cc(/C(C)=N/OCc2ccc3ccccc3c2)ccc1CN1CC(C(=O)O)C1` [Compound 15], for which, on hS1P1, the EC50 is 807 nM.
In the case of `CCc1cc(/C(C)=N/OCc2ccc(OC(C)C)c(C#N)c2)ccc1CN1CC(C(=O)O)C1` [Compound 16, (E)-1-(4-(1-(((3-cyano-4-isopropoxybenzyl)oxy)imino)ethyl)-2-ethylbenzyl)azetidine-3-carboxylic acid], the EC50 at hS1P4 was 3320 nM.
With `CCc1cc(/C(C)=N/OCc2ccc(-c3ccccc3)cc2)ccc1CN1CC(C(=O)O)C1` [Compound 20, (E)-1-(4-(1-(([1,1'-biphenyl]-4-ylmethoxy)imino)ethyl)-2-ethylbenzyl)azetidine-3-carboxylic acid], on hS1P1, the EC50 worked out at 782 ± 24.9 nM.
As to `CCc1cc(/C(C)=N/OCc2ccc3c(c2)CCCC3)ccc1CN1CC(C(=O)O)C1` [Compound 23, (E)-1-(2-ethyl-4-(1-(((5,6,7,8-tetrahydronaphthalen-2-yl)methoxy)imino)ethyl)benzyl)azetidine-3-carboxylic acid], at hS1P1, the EC50 amounted to 560 nM.
In the case of `COc1cc(/C(C)=N/OCc2ccc(C3CCCCC3)c(C(F)(F)F)c2)ccc1CN1CC(C(=O)O)C1` [Compound 27], the EC50 at hS1P4 came to 1700 nM.
Still for that read-out and setting: the same measure for `CCc1cc(/C(C)=N/OCc2ccc(-c3ccsc3)c(C)c2)ccc1CN1CC[C@H](C(=O)O)C1` [Compound 41, (S, E)-1-(2-ethyl-4-(1-(((3-methyl-4-(thiophen-3-yl)benzyl)oxy)imino)ethyl)benzyl)pyrrolidine-3-carboxylic acid]: 2.91 ± 0.01 nM.
For `CCc1cc(/C(C)=N/OCc2ccc(-c3ccc(F)cc3F)c(C)c2)ccc1CN1CC[C@H](C(=O)O)C1` [Compound 47, (S, E)-1-(2-ethyl-4-(1-(((2',4'-difluoro-2-methyl-[1,1'-biphenyl]-4-yl)methoxy)imino)ethyl)benzyl)pyrrolidine-3-carboxylic acid], the EC50 on hS1P4 stood at 4.67 nM.
With `CCc1cc(/C(C)=N/OCc2ccc(-c3ccc(F)nc3)c(C)c2)ccc1CN1CC[C@H](C(=O)O)C1` [Compound 53, (S, E)-1-(2-ethyl-4-(1-(((4-(6-fluoropyridin-3-yl)-3-methylbenzyl)oxy)imino)ethyl)benzyl)pyrrolidine-3-carboxylic acid], the EC50 at hS1P4 amounted to 7.02 ± 0.59 nM.
Consider `CCc1cc(/C(C)=N/OCc2ccc(-c3ccsc3)cc2)ccc1CN1CC[C@H](C(=O)O)C1` [Compound 56], for which, on hS1P4, the 50% effective concentration (EC50) is 5.05 ± 1.84 nM.
Turning to `CCc1cc(/C(C)=N/OCc2ccc(-c3cnn(C)c3)cc2F)ccc1CN1CC[C@H](C(=O)O)C1` [Compound 58], at hS1P4, the EC50 was more than 10000 nM.
Turning to `CCc1cc(/C(C)=N/OCc2ccc(C3CCCCC3)c(C)c2)ccc1CN1CC[C@H](C(=O)O)C1` [Compound 60, (S, E)-1-(2-ethyl-4-(1-(((4-cyclohexyl-3-methylbenzyl)oxy)imino)ethyl)benzyl)pyrrolidine-3-carboxylic acid], the EC50 at hS1P4 worked out at 71.7 nM.
For `CCc1cc(/C(C)=N/OCc2ccc(C3=CCCCC3)c(C)c2)ccc1CN1CC[C@H](C(=O)O)C1` [Compound 61], the EC50 on hS1P4 was determined as 3.33 ± 2.5 nM.
Still for that read-out and setting: the same measure for `CCc1cc(/C(C)=N/OCc2ccc(C3CCCC3)c(C)c2)ccc1CN1CC[C@H](C(=O)O)C1` [Compound 62, (S, E)-1-(2-ethyl-4-(1-(((4-cyclopentyl-3-methylbenzyl)oxy)imino)ethyl)benzyl)pyrrolidine-3-carboxylic acid]: 3.31 ± 0.24 nM; for `CCc1cc(/C(C)=N/OCc2ccc(C3=CCCC3)c(C)c2)ccc1CN1CC[C@H](C(=O)O)C1` [Compound 63]: 5.86 ± 0.27 nM.
Consider `CCc1cc(/C(C)=N/OCc2ccc(-c3ccccc3F)c(F)c2)ccc1CN1CC[C@H](C(=O)O)C1` [Compound 64], for which the concentration for a half-maximal effect (EC50) at hS1P4 came out at 7.77 ± 1.02 nM.
Take `CCc1cc(/C(C)=N/OCc2ccc(-c3ccc(F)nc3)c(F)c2)ccc1CN1CC[C@H](C(=O)O)C1` [Compound 69, (S, E)-1-(2-ethyl-4-(1-(((3-fluoro-4-(6-fluoropyridin-3-yl)benzyl)oxy)imino)ethyl)benzyl)pyrrolidine-3-carboxylic acid]: the EC50 on hS1P4 came to 8.28 ± 0.38 nM.
In the case of `CCc1cc(/C(C)=N/OCc2ccc(-c3cccs3)c(C)c2)ccc1CN1CC[C@H](C(=O)O)C1` [Compound 72, (S, E)-1-(2-ethyl-4-(1-(((3-methyl-4-(thiophen-2-yl)benzyl)oxy)imino)ethyl)benzyl)pyrrolidine-3-carboxylic acid], the 50% effective concentration (EC50) on hS1P4 was 1.51 ± 0.64 nM.
Take `CCc1cc(/C(C)=N/OCc2ccc(-c3ccncn3)c(C)c2)ccc1CN1CC[C@H](C(=O)O)C1` [Compound 76, (S, E)-1-(2-ethyl-4-(1-(((3-methyl-4-(pyrimidin-4-yl)benzyl)oxy)imino)ethyl)benzyl)pyrrolidine-3-carboxylic acid]: at hS1P4, the concentration giving a half-maximal response (EC50) came to 4.39 ± 0.91 nM.
Consider `CCc1cc(/C(C)=N/OCc2ccc(-c3ncc(F)cn3)c(C)c2)ccc1CN1CC[C@H](C(=O)O)C1` [Compound 77, (S, E)-1-(2-ethyl-4-(1-(((4-(5-fluoropyrimidin-2-yl)-3-methylbenzyl)oxy)imino)ethyl)benzyl)pyrrolidine-3-carboxylic acid], for which, on hS1P4, the EC50 worked out at 5.93 ± 4.12 nM.
On to `CCc1cc(/C(C)=N/OCc2ccc(-c3cncnc3)c(C)c2)ccc1CN1CC(C(=O)O)C1` [Compound 81, (E)-1-(2-ethyl-4-(1-(((3-methyl-4-(pyrimidin-5-yl)benzyl)oxy)imino)ethyl)benzyl)azetidine-3-carboxylic acid], for which the 50% effective concentration (EC50) on hS1P4 is 103 ± 9.1 nM.
For the compound `CCc1cc(/C(C)=N/OCc2ccc(-c3ccsc3)c(F)c2)ccc1CN1CC[C@H](C(=O)O)C1` [Compound 85, (S, E)-1-(2-ethyl-4-(1-(((3-fluoro-4-(thiophen-3-yl)benzyl)oxy)imino)ethyl)benzyl)pyrrolidine-3-carboxylic acid], at hS1P4, the EC50 turned out to be 8.52 ± 0.21 nM.
Regarding `CCc1cc(/C(C)=N/OCc2ccc(-c3cnc(F)cn3)c(C)c2)ccc1CN1CCC(C(=O)O)CC1` [Compound 90, (E)-1-(2-ethyl-4-(1-(((3-methyl-4-(5-fluoropyrazin-2-yl)-benzyl)oxy)imino)ethyl)benzyl)piperidine-4-carboxylic acid], the concentration for a half-maximal effect (EC50) at hS1P4 is more than 10000 nM.
On to `CCc1cc(/C(C)=N/OCc2ccc(-c3cnc(F)cn3)c(C)c2)ccc1CN1CC(C(=O)O)C1` [Compound 91, (E)-1-(2-ethyl-4-(1-(((3-methyl-4-(5-fluoropyrazin-2-yl)-benzyl)oxy)imino)ethyl)benzyl)azetidine-3-carboxylic acid], for which the EC50 on hS1P4 was more than 10000 nM.

The term EC50 denotes the concentration that produces a half-maximal response.
